Laboratory results: patent publication US20220370416A1, “COMPOUNDS AND METHODS FOR TARGETED DEGRADATION OF KRAS” (Arvinas Operations, Inc., priority 2020, published 2022)

Experiments:
HiBit-KRAS^G12C [1] = biological target: T1, HiBit-KRAS^G12C (Homo sapiens, UniProt P01116, G12C); test: HiBit degradation assay in MiaPaCa-2 HiBit-KRas^G12C cells; assay type: cell-based; conditions: 24 hours; for Dmax: MIA PaCa-2, MiaPaCa-2 HiBit-KRas^G12C cells, maximum degradation; for DC50: MiaPaCa-2 HiBit-KRas^G12C cells
T1 sequence (P01116 1-186 isoform P01116-2 G12C limits assumed): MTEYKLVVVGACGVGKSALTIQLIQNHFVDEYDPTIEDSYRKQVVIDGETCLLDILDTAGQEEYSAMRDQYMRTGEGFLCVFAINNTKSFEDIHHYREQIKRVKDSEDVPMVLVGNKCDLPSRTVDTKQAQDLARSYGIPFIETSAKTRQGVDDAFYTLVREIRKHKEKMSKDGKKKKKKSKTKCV
Method: Reagents. SW1573 (CRL-2170) and MiaPaCa-2 (CRL-1420) cells were purchased from ATCC. Both cell lines are […] for the G12C mutation in KRAS. SW1573 cells were cultured in DMEM+F12+Glutamax (+Sodium Bicarbonate, +sodium pyruvate, Thermofisher scientific, #10565) supplemented with 10% FBS (Thermofisher scientific, #2060357) and 1% Antibiotic-Antimycotic (Thermofisher scientific, #15240096). MiaPaCa-2 cells were cultured in DMEM+Glutamax media (Thermofisher scientific, #10566) supplemented with 10% FBS (Thermofisher scientific, #2060357) and 1% Antibiotic-Antimycotic (Thermofisher scientific, #15240096). For degradation assays, 384 well plates were purchased from Corning (Corning® CellBIND® 384-well Flat Clear Bottom Black Polystyrene Microplates, Low Flange, #3770). Gambogic acid was purchased from Selleckchem (#S2448). Alamar blue was purchased from Thermofisher scientific (A50101) and used according to manufacturer instructions. The Nano-Glo® HiBit Lytic Detection System and Nano-Glo® HiBit Blotting System were purchased from Promega (#N3050 and #N2410) and used according to manufacturer instructions.
To create the MiaPaCa-2 HiBit-KRAS^G12C cell line, CRISPR-Cas9 was used to insert the HiBit tag onto the N-terminus of one or more of the four endogenous KRAS^G12C alleles. After knock-in of the tag, individual clones were isolated by single cell dilution and screened for HiBit insertion by PCR. Clones containing the HiBit tag were sequenced and one was identified that contained the desired HiBit-KRAS^G12C sequence at one allele while the remaining three KRAS^G12C alleles were unaffected. This line was used for all subsequent studies.
Either SW1573 HiBit-KRas^G12C or MiaPaCa-2 HiBit-KRas^G12C cells were plated at 9000 cells/well in a 384 well plate (Corning #3770). Exemplary heterobifunctional molecules and positive controls were diluted in the appropriate cell media and applied to the plated cells resulting in a final concentration titration of 10 μM to 20 nM in either 0.1% or 0.5% dimethyl sulfoxide (DMSO). Gambogic acid was used as a positive control for cytotoxicity and titrated from 10 μM to 78 nM. All assays were performed in triplicate. Cells were treated with compounds for 24 hours at 37° C. in an incubator containing 5% CO2. Following treatment, alamar blue was used to determine if any compounds led to a loss in cell viability after 24 hours. The 10× alamar blue reagent was added to a final concentration of 1× as recommended by the manufacturer and cells were returned to the incubator for 4 hours. Plates were then allowed to equilibrate to room temperature and fluorescence was measured using a Perkin-Elmer EnVision. After completion of the fluorescence read, the liquid from each well was removed and the cells were washed with PBS. The Nano-Glo® HiBiT detection reagent was prepared according to the manufacturer's instructions and added to each well after the PBS wash was removed. Following incubation at room temperature for 45 minutes, the luminescence was read using the ultra-sensitive luminescence aperture on the Envision instrument.
Fluorescence values from the alamar blue treatment were normalized to the DMSO only control for each compound titration. We hypothesized that compounds that led to a ≥50% loss in cell viability of the KRAS-independent SW1573 HiBit-KRas^G12C cells were likely generally cytotoxic and loss of HiBit-KRAS^G12C signal from these compounds may be due to lower cell number and not specific KRAS^G12C degradation. These points were therefore excluded from the data analysis for degradation. […]

HiBit-KRAS^G12C [2] = biological target: T1, HiBit-KRAS^G12C; test: HiBit degradation assay in SW1573 HiBit-KRas^G12C cells; assay type: cell-based; design: expressed in transfected cells; host or cells: SW1573 (clone E6), modified pcDNA3.1 vector, TK promoter; conditions: 24 hours; for Dmax: SW1573, SW1573 HiBit-KRas^G12C; for DC50: SW1573 HiBit-KRas^G12C
Summary of the method: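 HiBit-KRAS G12C degradation was measured after a 24 h compound exposure (titrated 10 μM–20 nM) in engineered SW1573 cells. Lytic HiBit luminescence, expressed relative to DMSO controls, yielded DC50 and Dmax from 4-parameter fits. Concentrations causing ≥50% loss in alamar blue viability were omitted as cytotoxic.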

[3] = 0.5% DMSO, read-out: KRas^G12C-HiBiT (MiaPaCa; 0.5% DMSO) DMax
[4] = read-out: KRas^G12C-HiBiT (MiaPaCa; 0.5% DMSO) IC50, 0.5% DMSO
[5] = 0.5% DMSO, read-out: KRas^G12C-HiBiT (SW1573; 0.5% DMSO) Dmax**
[6] = read-out: KRas^G12C-HiBiT (SW1573; 0.5% DMSO) IC50***, 0.5% DMSO
[7] = 0.1% DMSO, read-out: KRas^G12C-HiBiT (MiaPaCa; 0.1% DMSO) DMax
[8] = 0.1% DMSO, read-out: KRas^G12C-HiBit (SW1573; 0.1% DMSO) Dmax**
[9] = 0.1% DMSO, read-out: KRas^G12C-HIBit (SW1573; 0.1% DMSO) DC50*

Dmax (HiBit-KRAS^G12C [1]; [3]) [%] | DC50 (HiBit-KRAS^G12C [1]; [4]) [nM] | DC50 (HiBit-KRAS^G12C [2]; [6]) [nM] | DC50 (HiBit-KRAS^G12C [1]; read-out: KRas^G12C-HiBiT (MiaPaCa; 0.1% DMSO) IC50, 0.1% DMSO) [nM] | Compound | Dmax (HiBit-KRAS^G12C [2]; [5]) [%] | Dmax (HiBit-KRAS^G12C [1]; [7]) [%] | Dmax (HiBit-KRAS^G12C [2]; [8]) [%] | DC50 (HiBit-KRAS^G12C [2]; [9]) [nM]
> 70 | < 100 | < 100 | – | C=C(F)C(=O)N1CCN(c2nc(OCCN3CCC(F)(COc4cc([C@H](C(=O)N5C[C@H](O)C[C@H]5C(=O)N[C@@H](C)c5ccc(-c6ccnn6C)cc5)C(C)C)on4)CC3)nc3c(F)c(-c4cc(O)cc5ccccc45)c(Cl)cc23)C[C@@H]1CC#N (atropisomer, axis not shown) [Compound 117, (2S,4R)-1-[(2R)-2-[3-({1-[2-({6-chloro-4-[(3S)-3-(cyanomethyl)-4-(2-fluoroprop-2-enoyl)piperazin-1-yl]-8-fluoro-7-(3-hydroxynaphthalen-1-yl)quinazolin-2-yl}oxy)ethyl]-4-fluoropiperidin-4-yl}methoxy)-1,2-oxazol-5-yl]-3-methylbutanoyl]-4-hydroxy-N-[(1S)-1-[4-(1-methyl-1H-pyrazol-5-yl)phenyl]ethyl]pyrrolidine-2-carboxamide] | 35 to 70 | – | – | –
35 to 70 | > 1000 | > 1000 | – | C=CC(=O)N1CCN(c2nc(OCCN3CCC(COc4cc([C@H](C(=O)N5C[C@H](O)C[C@H]5C(=O)N[C@@H](C)c5ccc(-c6scnc6C)cc5)C(C)C)on4)CC3)nc3c(F)c(-c4cc(O)cc5ccccc45)c(Cl)cc23)CC1 (atropisomer, axis not shown) [Compound 146, (2S,4R)-1-[(2R)-2-(3-{[1-(2-{[6-chloro-8-fluoro-7-(3-hydroxynaphthalen-1-yl)-4-[4-(prop-2-enoyl)piperazin-1-yl]quinazolin-2-yl]oxy}ethyl)piperidin-4-yl]methoxy}-1,2-oxazol-5-yl)-3-methylbutanoyl]-4-hydroxy-N-[(1S)-1-[4-(4-methyl-1,3-thiazol-5-yl)phenyl]ethyl]pyrrolidine-2-carboxamide] | – | – | – | –
> 70 | 100 to 1000 | 100 to 1000 | – | C=CC(=O)N1CCN(c2nc(OCCN3CCC(CN(C)c4cc([C@H](C(=O)N5C[C@H](O)C[C@H]5C(=O)N[C@@H](C)c5ccc(-c6scnc6C)cc5)C(C)C)on4)CC3)nc3c(F)c(-c4cc(O)cc5ccccc45)c(Cl)cc23)C[C@@H]1CC#N [Compound 143, (2S,4R)-1-[(2R)-2-{3-[({1-[2-({6-chloro-4-[(3S)-3-(cyanomethyl)-4-(prop-2-enoyl)piperazin-1-yl]-8-fluoro-7-(3-hydroxynaphthalen-1-yl)quinazolin-2-yl}oxy)ethyl]piperidin-4-yl}methyl)(methyl)amino]-1,2-oxazol-5-yl}-3-methylbutanoyl]-4-hydroxy-N-[(1S)-1-[4-(4-methyl-1,3-thiazol-5-yl)phenyl]ethyl]pyrrolidine-2-carboxamide] | > 70 | – | – | –
– | – | – | 100 to 1000 | C=CC(=O)N1CCN(c2nc(OCCN3CCN(CCOCC(=O)N[C@H](C(=O)N4C[C@H](O)C[C@H]4C(=O)N[C@@H](C)c4ccc(-c5scnc5C)cc4)C(C)(C)C)CC3)nc3c(F)c(-c4cc(O)cc5ccccc45)c(Cl)cc23)CC1 [Compound 51, (2S,4R)-1-[(2S)-2-(2-{2-[4-(2-{[6-chloro-8-fluoro-7-(3-hydroxynaphthalen-1-yl)-4-[4-(prop-2-enoyl)piperazin-1-yl]quinazolin-2-yl]oxy}ethyl)piperazin-1-yl]ethoxy}acetamido)-3,3-dimethylbutanoyl]-4-hydroxy-N-[(1S)-1-[4-(4-methyl-1,3-thiazol-5-yl)phenyl]ethyl]pyrrolidine-2-carboxamide] | – | < 35 | < 35 | > 1000
– | > 1000 | > 1000 | – | C=CC(=O)N1CCN(c2nc(OCCN3CCC(F)(COc4cc([C@@H](C(=O)N5C[C@H](O)C[C@H]5C(=O)N[C@@H](C)c5ccc(-c6scnc6C)cc5)C(C)C)on4)CC3)nc3c(F)c(-c4cc(O)cc5ccccc45)c(Cl)cc23)C[C@@H]1CC#N [Compound 134, (2S,4R)-1-[(2S)-2-[3-({1-[2-({6-chloro-4-[(3S)-3-(cyanomethyl)-4-(prop-2-enoyl)piperazin-1-yl]-8-fluoro-7-(3-hydroxynaphthalen-1-yl)quinazolin-2-yl}oxy)ethyl]-4-fluoropiperidin-4-yl}methoxy)-1,2-oxazol-5-yl]-3-methylbutanoyl]-4-hydroxy-N-[(1S)-1-[4-(4-methyl-1,3-thiazol-5-yl)phenyl]ethyl]pyrrolidine-2-carboxamide] | – | – | – | –

Compound | Dmax (HiBit-KRAS^G12C [1]; [3]) [%] | DC50 (HiBit-KRAS^G12C [1]; [4]) [nM] | DC50 (HiBit-KRAS^G12C [2]; [6]) [nM] | DC50 (HiBit-KRAS^G12C [1]; read-out: KRas^G12C-HiBiT (MiaPaCa; 0.1% DMSO) IC50, 0.1% DMSO) [nM] | Dmax (HiBit-KRAS^G12C [2]; [5]) [%] | Dmax (HiBit-KRAS^G12C [1]; [7]) [%] | Dmax (HiBit-KRAS^G12C [2]; [8]) [%] | DC50 (HiBit-KRAS^G12C [2]; [9]) [nM]
C=CC(=O)N1CCN(c2nc(N3CCN(C[C@H]4C[C@H](OCC(=O)N[C@H](C(=O)N5C[C@H](O)C[C@H]5C(=O)N[C@@H](C)c5ccc(-c6scnc6C)cc5)C(C)(C)C)C4)CC3)nc3c(F)c(-c4cc(O)cc5ccccc45)c(Cl)cc23)C[C@@H]1CC#N [Compound 114, (2S,4R)-1-[(2S)-3,3-dimethyl-2-{2-[(1r,3r)-3-[(4-{6-chloro-4-[(3S)-3-(cyanomethyl)-4-(prop-2-enoyl)piperazin-1-yl]-8-fluoro-7-(3-hydroxynaphthalen-1-yl)quinazolin-2-yl}piperazin-1-yl)methyl]cyclobutoxy]acetamido}butanoyl]-4-hydroxy-N-[(1S)-1-[4-(4-methyl-1,3-thiazol-5-yl)phenyl]ethyl]pyrrolidine-2-carboxamide] | < 35 | 100 to 1000 | 100 to 1000 | – | 35 to 70 | – | – | –
C=CC(=O)N1CCN(c2nc(OCCN3CCC(COCC(=O)N[C@H](C(=O)N4C[C@H](O)C[C@H]4C(=O)N[C@@H](C)c4ccc(-c5scnc5C)cc4)C(C)(C)C)CC3)nc3c(F)c(-c4cc(O)cc5ccccc45)c(Cl)cc23)CC1 [Compound 63, (2S,4R)-1-[(2S)-2-(2-{[1-(2-{[6-chloro-8-fluoro-7-(3-hydroxynaphthalen-1-yl)-4-[4-(prop-2-enoyl)piperazin-1-yl]quinazolin-2-yl]oxy}ethyl)piperidin-4-yl]methoxy}acetamido)-3,3-dimethylbutanoyl]-4-hydroxy-N-[(1S)-1-[4-(4-methyl-1,3-thiazol-5-yl)phenyl]ethyl]pyrrolidine-2-carboxamide] | 35 to 70 | – | – | – | > 70 | 35 to 70 | 35 to 70 | 100 to 1000
